Assay results as given in ChEMBL document CHEMBL4828715, “Discovery, Structure-Activity Relationships, and In Vivo Evaluation of Novel Aryl Amides as Brain Penetrant Adaptor Protein 2-Associated Kinase 1 (AAK1) Inhibitors for the Treatment of Neuropathic Pain” (J Med Chem, 2021).

Legend:
[1] = biological target: AP2-associated protein kinase 1 (Homo sapiens, UniProt Q2M2I8); experiment: Inhibition of recombinant GST-Xa-tagged human AAK1 (30 to 330 residues) using 5-FAM-labelled Alla-KEEQSQITSQVTGQIGWR-NH2 peptide as substrate incubated for 3 hrs in presence of ATP by electrophoretic analysis
[2] = Metabolic stability in rat liver microsomes assessed as parent compound remaining at 0.5 uM incubated for 10 mins in presence of NADPH by LC-MS/MS analysis; type: ADME, Microsome; details: read-out: Stability
[3] = Metabolic stability in human liver microsomes assessed as parent compound remaining at 0.5 uM incubated for 10 mins in presence of NADPH by LC-MS/MS analysis; type: ADME, Microsome; details: read-out: Stability
[4] = Metabolic stability in mouse liver microsomes assessed as parent compound remaining at 0.5 uM incubated for 10 mins in presence of NADPH by LC-MS/MS analysis; type: ADME, Microsome; details: read-out: Stability
[5] = Permeability of the compound at pH 5.5 incubated for 4 hrs by PAMPA-based UV spectrophotometry; type: ADME; details: read-out: permeability
[6] = Permeability of the compound at pH 7.4 incubated for 4 hrs by PAMPA-based UV spectrophotometry; type: ADME
[7] = Permeability of the compound across basolateral to apical membrane in human Caco-2 cells incubated for 2 hrs by LC-MS/MS analysis; type: ADME, cell-based; details: Caco-2, read-out: permeability

Chain of AP2-associated protein kinase 1 (Q2M2I8 whole entry, the tested form may be a part): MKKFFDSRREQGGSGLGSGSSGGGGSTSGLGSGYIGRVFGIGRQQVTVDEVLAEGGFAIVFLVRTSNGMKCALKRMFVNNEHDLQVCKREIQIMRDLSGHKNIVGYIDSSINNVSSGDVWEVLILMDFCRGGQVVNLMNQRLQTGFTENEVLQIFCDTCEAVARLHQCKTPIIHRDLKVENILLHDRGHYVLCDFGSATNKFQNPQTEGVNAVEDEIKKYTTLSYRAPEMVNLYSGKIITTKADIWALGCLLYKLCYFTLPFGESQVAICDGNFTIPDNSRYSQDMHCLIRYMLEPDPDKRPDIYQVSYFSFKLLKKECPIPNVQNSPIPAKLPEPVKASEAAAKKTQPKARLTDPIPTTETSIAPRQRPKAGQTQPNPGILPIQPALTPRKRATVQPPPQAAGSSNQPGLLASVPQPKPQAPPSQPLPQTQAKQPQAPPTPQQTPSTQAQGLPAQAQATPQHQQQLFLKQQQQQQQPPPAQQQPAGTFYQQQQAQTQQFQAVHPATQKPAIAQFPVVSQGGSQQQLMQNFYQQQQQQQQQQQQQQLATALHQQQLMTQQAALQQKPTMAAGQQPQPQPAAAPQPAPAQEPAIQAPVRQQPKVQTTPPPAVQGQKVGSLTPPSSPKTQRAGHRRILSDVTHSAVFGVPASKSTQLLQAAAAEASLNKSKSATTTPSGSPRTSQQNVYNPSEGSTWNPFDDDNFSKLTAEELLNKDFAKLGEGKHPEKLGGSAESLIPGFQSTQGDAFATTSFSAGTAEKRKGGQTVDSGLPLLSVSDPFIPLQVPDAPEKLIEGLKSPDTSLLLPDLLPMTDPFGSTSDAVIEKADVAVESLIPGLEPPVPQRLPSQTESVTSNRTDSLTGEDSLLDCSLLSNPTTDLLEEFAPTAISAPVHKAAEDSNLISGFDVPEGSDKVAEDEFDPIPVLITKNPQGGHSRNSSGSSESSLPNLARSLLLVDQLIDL

Compound | IC50 [1] | remaining at 10 min, 0.5 µM [2] | remaining at 10 min, 0.5 µM [3] | remaining at 10 min, 0.5 µM [4] | Papp at 4 h [5] | permeability ([6]; pampa, pH 7.4, 4 h) | Papp at 4 h ([6]; PAMPA, pH 7.4, read-out: permeability) | Papp B→A at 2 h [7]
COc1cc(N(C)C(=O)[C@H](N)CC(C)C)ccc1-c1cnco1 | 12800 nM | – | – | – | – | – | – | –
COc1cc(NC(=O)[C@H](N)CC(C)C)ccc1-c1cncnc1 | 5700 nM | – | – | – | – | – | – | –
COc1cc(NC(=O)[C@H](N)CC(C)C)ccc1-n1cncn1 | 920 nM | 79% | 79% | 87% | – | – | – | –
COc1cc(NC(=O)[C@H](N)CC(C)C)ccc1-c1ccncn1 | 290 nM | 52% | 71% | 40% | – | – | – | –
COc1cc(NC(=O)[C@@H](C)N)ccc1-c1cnco1 | 1300 nM | 100% | 100% | 97% | – | – | – | –
CC(C)C[C@@H](N)C(=O)Nc1ccc(-c2cnco2)c(OC(F)(F)F)c1 | – | 79% | 69% | 53% | – | – | – | –
COc1cc(NC(=O)C(CN)CC(C)C)ccc1-c1cnco1 (stereo not drawn) | – | 63% | 97% | 78% | – | – | – | –
COc1cc(NC(=O)Cc2ccccc2)ccc1-c1cnco1 | 430 nM | 70% | 78% | 70% | – | – | – | –
CNc1cc(-c2ccc(NC(=O)[C@H](N)CC(C)C)cc2OC)ccn1 | 450 nM | 22% | 69% | 24% | – | – | – | –
COc1cc(NC(=O)[C@H](N)[C@H](C)O)ccc1-c1cnco1 | 410 nM | 77% | 85% | 91% | – | – | – | –
COc1cc(NC(=O)[C@H]2NCCC[C@H]2C(C)C)ccc1-c1cnco1 | 360 nM | 24% | 19% | 1% | – | – | – | –
COc1cc(NC(=O)[C@H](N)C(C)C)ccc1-c1cnco1 | – | 42% | 84% | 40% | – | – | – | –
COc1cc(NC(=O)[C@H](N)CC2CCCCC2)ccc1-c1cnco1 | 480 nM | 63% | 68% | 78% | – | – | – | –
COc1cc(NC(=O)[C@H](N)Cc2ccccc2)ccc1-c1cnco1 | 630 nM | 49% | 68% | 56% | – | – | – | –
COCCc1ccc(OCC(O)CNC(C)C)cc1 (stereo not drawn) [METOPROLOL] | – | – | – | – | 10.2 ×10⁻⁶ cm/s | 83.5 10^-6 cm/s | – | –
CC(C(=O)O)c1cccc(C(=O)c2ccccc2)c1 (stereo not drawn) [KETOPROFEN] | – | – | – | – | 34.2 ×10⁻⁶ cm/s | – | 1.1 ×10⁻⁶ cm/s | –
COc1cc(NC(=O)[C@H](N)CC(C)C)ccc1-c1cccnc1 | 10200 nM | – | – | – | – | – | – | –
CCC[C@H](N)C(=O)Nc1ccc(-c2cnco2)c(OC)c1 | 350 nM | 31% | 70% | 46% | – | – | – | –
COc1cc(NC(=O)[C@H](N)CC(C)C)ccc1-n1ccnc1 | – | 86% | 92% | 87% | – | – | – | –
COc1cc(NC(=O)[C@H](N)CC(C)C)ccc1-c1cnn(C)c1 | 3900 nM | – | – | – | – | – | – | –
COc1cc(NC(=O)[C@H]2CCCCN2)ccc1-c1cnco1 | 550 nM | 37% | 94% | 1% | – | – | – | –
C[C@H]1O[C@@H](O[C@H]2[C@@H](O)C[C@H](O[C@H]3[C@@H](O)C[C@H](O[C@H]4CC[C@@]5(C)[C@H](CC[C@@H]6[C@@H]5C[C@@H](O)[C@]5(C)[C@@H](C7=CC(=O)OC7)CC[C@]65O)C4)O[C@@H]3C)O[C@@H]2C)C[C@H](O)[C@@H]1O [DIGOXIN] | – | – | – | – | – | – | – | 10 ×10⁻⁶ cm/s

The next lines start with the values.

IC50 [1] | remaining at 10 min, 0.5 µM [2] | remaining at 10 min, 0.5 µM [3] | remaining at 10 min, 0.5 µM [4] | Papp at 4 h [5] | permeability ([6]; pampa, pH 7.4, 4 h) | Papp at 4 h ([6]; PAMPA, pH 7.4, read-out: permeability) | Papp B→A at 2 h [7] | Compound
48 nM | 74% | 74% | 43% | – | – | – | – | Cc1cc(NC(=O)[C@H](N)CC(C)C)ccc1-c1cnco1
85 nM | 77% | 91% | 65% | – | – | – | – | COc1cc(NC(=O)[C@H](N)CC(C)C)ccc1-c1ccncc1
18 nM | 66% | 69% | 67% | – | – | – | – | COc1cc(NC(=O)[C@H](N)C2CCCCC2)ccc1-c1cnco1
46 nM | 39% | 53% | 14% | – | – | – | – | CN[C@H](CC(C)C)C(=O)Nc1ccc(-c2cnco2)c(OC)c1
100 nM | 70% | 88% | 45% | – | – | – | – | CCc1cc(NC(=O)[C@H](N)CC(C)C)ccc1-c1cnco1
260 nM | 54% | 65% | 43% | – | – | – | – | CCCC[C@H](N)C(=O)Nc1ccc(-c2cnco2)c(OC)c1
110 nM | 74% | 99% | 70% | – | – | – | – | COc1cc(NC(=O)[C@H](N)CC(C)C)ccc1-c1ccnnc1
17 nM | 60% | 77% | 76% | – | – | – | – | CC(C)C1CCCNC1C(=O)Nc1ccc(-c2ccncc2)cc1 (racemic)
150 nM | 89% | 96% | 73% | – | – | – | – | COc1cc(NC(=O)[C@H](N)CC(C)C)ccc1-c1ccnc(N)c1
72 nM | 50% | 64% | 57% | – | – | – | – | CC(C)C[C@@H](N)C(=O)Nc1ccc(-c2cnco2)c(C#N)c1
15 nM | 75% | 80% | 66% | – | – | – | – | CC(C)C[C@@H](N)C(=O)Nc1ccc(-c2ccncc2)cc1
71 nM | 62% | 75% | 80% | – | – | – | – | COc1cc(NC(=O)[C@H](N)CCC(C)C)ccc1-c1cnco1
45 nM | 74% | 100% | 79% | – | – | – | – | COc1cc(NC(=O)[C@H](N)CC2CC2)ccc1-c1cnco1
127 nM | 4% | 82% | 7% | – | – | – | – | COc1cc(NC(=O)C[C@@H](N)C(C)C)ccc1-c1cnco1
65 nM | 76% | 87% | 65% | – | – | – | – | CCCC[C@@H](N)C(=O)Nc1ccc(-c2cnco2)c(OC)c1
80 nM | 58% | 64% | 46% | – | – | – | – | COc1cc(NC(=O)CC2CCCC2)ccc1-c1cnco1

IC50 [1] | remaining at 10 min, 0.5 µM [2] | remaining at 10 min, 0.5 µM [3] | remaining at 10 min, 0.5 µM [4] | Papp at 4 h [5] | permeability ([6]; pampa, pH 7.4, 4 h) | Papp at 4 h ([6]; PAMPA, pH 7.4, read-out: permeability) | Papp B→A at 2 h [7] | Compound
19 nM | 40% | 71% | 53% | – | – | – | – | COc1cc(NC(=O)[C@@H](N)CC(C)C)ccc1-c1cnco1
90 nM | 63% | 87% | 49% | – | – | – | – | CCC[C@@H](N)C(=O)Nc1ccc(-c2cnco2)c(OC)c1
80 nM | 46% | 61% | 33% | – | – | – | – | COc1cc(NC(=O)CCC(C)C)ccc1-c1cnco1
190 nM | 76% | 75% | 55% | – | – | – | – | COc1cc(NC(=O)[C@H](N)CC(C)C)ccc1-c1cncs1
240 nM | 89% | 73% | 74% | – | – | – | – | COc1cc(NC(=O)[C@H](N)CC(C)C)ccc1-c1ccnc(Cl)c1
33 nM | 58% | 70% | 53% | – | – | – | – | COc1cc(NC(=O)[C@H](N)CC2CCC2)ccc1-c1cnco1
170 nM | 71% | 87% | 45% | – | – | – | – | CC(C)C[C@@H](N)C(=O)Nc1ccc(-c2cnco2)cc1
43 nM | 68% | 78% | 30% | – | – | – | – | CC(C)C[C@@H](N)C(=O)Nc1ccc(-c2cnco2)c(F)c1
13 nM | 73% | 84% | 63% | – | – | – | – | COc1cc(NC(=O)[C@H](N)C2CCCC2)ccc1-c1cnco1
120 nM | 70% | 81% | 46% | – | – | – | – | CC[C@@H](N)C(=O)Nc1ccc(-c2cnco2)c(OC)c1
42 nM | 60% | 63% | 75% | – | – | – | – | COc1cc(NC(=O)[C@H](N)c2ccccc2)ccc1-c1cnco1
49 nM | 87% | 84% | 44% | – | – | – | – | COc1cc(NC(=O)[C@H](N)CC(C)C)ccc1-c1cn[nH]n1
85 nM | 76% | – | 65% | – | – | – | – | COc1cc(NC(=O)[C@H](N)CC(C)(C)C)ccc1-c1cnco1
13 nM | 60% | 64% | 54% | – | – | – | – | CCOc1cc(NC(=O)[C@H](N)CC(C)C)ccc1-c1cnco1
31 nM | 62% | 86% | 81% | – | – | – | – | CC[C@@H](C)[C@@H](N)C(=O)Nc1ccc(-c2cnco2)c(OC)c1
